{
  "source": "patent US20090082333A1",
  "about": "“REMEDY FOR XANTHOMA” (NATIONAL UNIVERSITY CORPORATION KOBE UNIVERSITY, priority 2005, published 2009)",
  "tested_on": "WHHLMI rabbit",
  "assay": "Xanthomatosis-inhibiting activity in rabbit model (extent of limb xanthoma at digital joints)",
  "type": "in vivo",
  "settings": "male WHHLMI rabbit, digital joints of forelegs and hind legs; for Distribution of Severity: − (no occurrence), count of limb xanthoma assessments: control 2; for Distribution of Severity: +++ (mass), count of limb xanthoma assessments: control 4; for Distribution of Severity: + (dotting of granule), count of limb xanthoma assessments: control 8; for Distribution of Severity: ++ (scattering), count of limb xanthoma assessments: control 26",
  "method": "A vehicle or the test compound 1 was orally administered to a 2 months old male WHHLMI rabbit (10 to 11 animals/group) in an amount of 100, 200 mg/kg in a mixed diet for 32 weeks. After the administration for 32 weeks, xanthoma was evaluated at the digital joints of forelegs and hind legs (Table 1). The extent of limb xanthoma was assessed by classifying into four stages: no occurrence (−), dotting of granule (+), scattering (++), mass (+++)",
  "key": {"[1]": {"settings": "100 mg/kg orally in mixed diet for 32 weeks"}, "[2]": {"settings": "200 mg/kg orally in mixed diet for 32 weeks"}},
  "data": [
    {"smiles": "COc1cccc([C@H]2O[C@H](CC(=O)N3CCC(CC(=O)O)CC3)C(=O)N(CC(C)(C)COC(C)=O)c3ccc(Cl)cc32)c1OC", "note": "[Test compound 1, N-{[(3R,5S)-1-(3-acetoxy-2,2-dimethylpropyl)-7-chloro-5-(2,3-dimethoxyphenyl)-2-oxo-1,2,3,5-tetrahydro-4,1-benzoxazepin-3-yl}acetyl}piperidine-4-acetic acid]", "values": [
      {"measurement": "Distribution of Severity: − (no occurrence), count of limb xanthoma assessments", "setting": "[1]", "result": 4},
      {"measurement": "Distribution of Severity: +++ (mass), count of limb xanthoma assessments", "setting": "[1]", "result": 0},
      {"measurement": "Distribution of Severity: + (dotting of granule), count of limb xanthoma assessments", "setting": "[1]", "result": 13},
      {"measurement": "Distribution of Severity: ++ (scattering), count of limb xanthoma assessments", "setting": "[1]", "result": 27},
      {"measurement": "Distribution of Severity: − (no occurrence), count of limb xanthoma assessments", "setting": "[2]", "result": 0},
      {"measurement": "Distribution of Severity: +++ (mass), count of limb xanthoma assessments", "setting": "[2]", "result": 0},
      {"measurement": "Distribution of Severity: + (dotting of granule), count of limb xanthoma assessments", "setting": "[2]", "result": 29},
      {"measurement": "Distribution of Severity: ++ (scattering), count of limb xanthoma assessments", "setting": "[2]", "result": 15}
    ]}
  ]
}
